Assay results as given in article PMC7265429, “Characterization of a new small-molecule inhibitor of HDAC6 in glioblastoma” (Cell Death & Disease, 2020).

System: GNS166 cells
Assay: Microarray whole-transcriptome gene expression analysis
Type: cell-based, human
Description: Whole-transcriptome analysis was performed from 300 ng of RNA using HuGene-2_0-st-v1 expression array (Affymetrix), which covers 48,226 transcripts. Raw data were first checked for quality purposes through the Affymetrix® Expression Console™ Software v1.4.1 and TAC software v4.0. Then, data were normalized using the Robust Multi-array Average (RMA) and analyzed by Limma tool. Probesets with FDR-corrected p-values smaller than 0.05 were selected. Functional enrichment on Gene Ontology (GO) biological processes was performed on a smaller subset of the differentially expressed genes (corrected p-value < 0.001) by means of Broad Institute GSEA. […] The data that support this study have been deposited in NCBI´s Gene Expression Omnibus and are accessible through GEO series accession number GSE143887.

[1] = sheet DMSO-SAHA_DOWN, microarray

O=C(CCCCCCC(=O)Nc1ccccc1)NO [SAHA, Suberoylanilide hydroxamic acid]
logFC TTC7B (transcript TC1400009967.hg.1) [1]: -1.063 | logFC TTC28 (transcript TC2200008356.hg.1) [1]: -1.091 | logFC TXNDC15 (transcript TC0500008705.hg.1) [1]: -1.511 | logFC USE1 (transcript TC1900007313.hg.1) [1]: -1.0842 | logFC VCAN (transcript TC0500007972.hg.1) [1]: -1.305 | logFC YAP1 (transcript TC1100008904.hg.1) [1]: -1.463 | logFC ZDHHC4 (transcript TC0700006649.hg.1) [1]: -0.9579 | logFC ZNF43 (transcript TC1900010163.hg.1) [1]: -0.8461 | logFC ZNF107 (transcript TC0700013370.hg.1) [1]: -1.056 | logFC ZNF805 (transcript TC1900008988.hg.1) [1]: -0.8747 | logFC geneSymbol NA (transcript 23064083) [1]: -1.061 | logFC geneSymbol NA (transcript 23066345) [1]: -1.581 | logFC geneSymbol NA (transcript 23066351) [1]: -1.258 | logFC geneSymbol NA (transcript 23066370) [1]: -1.256 | logFC geneSymbol NA (transcript 23066378) [1]: -1.258 | logFC geneSymbol NA (transcript 23075414) [1]: -1.568 | logFC geneSymbol NA (transcript 23075613) [1]: -0.9478 | logFC geneSymbol NA (transcript 23075631) [1]: -0.8653 | logFC geneSymbol NA (transcript 23075715) [1]: -0.9535 | logFC geneSymbol NA (transcript 23075786) [1]: -0.9478 | logFC geneSymbol NA (transcript 23075802) [1]: -0.9222 | logFC geneSymbol NA (transcript 23075888) [1]: -0.8842 | logFC geneSymbol NA (transcript 23075961) [1]: -0.9103 | logFC geneSymbol NA (transcript 23076100) [1]: -0.9321 | logFC geneSymbol NA (transcript 23076182) [1]: -0.9773 | logFC geneSymbol NA (transcript 23076263) [1]: -0.9293 | logFC geneSymbol NA (transcript 23076348) [1]: -0.9199 | logFC geneSymbol NA (transcript 23076424) [1]: -0.8654 | logFC geneSymbol NA (transcript 23076493) [1]: -0.9827 | logFC geneSymbol NA (transcript HTA2-pos-3670232_st) [1]: -0.8727 | logFC geneSymbol NA (transcript HTA2-pos-3670240_st) [1]: -1.133 | logFC geneSymbol NA (transcript HTA2-pos-PSR05023592.hg.1) [1]: -0.8946 | logFC geneSymbol NA (transcript HTA2-pos-PSR05035203.hg.1) [1]: -1.027 | logFC geneSymbol NA (transcript HTA2-pos-PSR17008061.hg.1) [1]: -0.9289 | logFC geneSymbol NA (transcript HTA2-pos-PSR17008062.hg.1) [1]: -0.8972 | logFC geneSymbol NA (transcript HTA2-pos-PSR17008080.hg.1) [1]: -0.8914 | logFC geneSymbol NA (transcript HTA2-pos-PSR17008100.hg.1) [1]: -0.9888 | logFC geneSymbol NA (transcript HTA2-pos-PSR17013956.hg.1) [1]: -1.322 | logFC geneSymbol NA (transcript HTA2-pos-PSR19006615.hg.1) [1]: -0.8048 | logFC transcript 23071521 (geneSymbol NA) (transcript 23071521, DMSO vs 5 µM SAHA, upregulated genes): 0.9492 | logFC transcript 23074028 (geneSymbol NA) (transcript 23074028, DMSO vs 5 µM SAHA, upregulated genes): 1.15 | logFC REPS2 (transcript TC0X00006704.hg.1, DMSO vs 5 µM SAHA, upregulated genes): 2.016 | logFC FAM3C2 (transcript TC0X00006789.hg.1, DMSO vs 5 µM SAHA, upregulated genes): 1.058 | logFC TMEM35 (transcript TC0X00007935.hg.1, DMSO vs 5 µM SAHA, upregulated genes): 1.065 | logFC SMIM10 (transcript TC0X00008492.hg.1, DMSO vs 5 µM SAHA, upregulated genes): 1.0804 | logFC CDR1 (transcript TC0X00008596.hg.1, DMSO vs 5 µM SAHA, upregulated genes): 2.1035 | logFC GEMIN8 (transcript TC0X00009107.hg.1, DMSO vs 5 µM SAHA, upregulated genes): 1.085 | logFC TAB3 (transcript TC0X00009339.hg.1, DMSO vs 5 µM SAHA, upregulated genes): 0.8188 | logFC TMEM255A (transcript TC0X00010670.hg.1, DMSO vs 5 µM SAHA, upregulated genes): 1.002 | logFC DCAF6 (transcript TC0100010518.hg.1, DMSO vs 5 µM SAHA, upregulated genes): 0.8028 | logFC LAMC1 (transcript TC0100010863.hg.1, DMSO vs 5 µM SAHA, upregulated genes): 1.035 | logFC PPP2R5A (transcript TC0100011520.hg.1, DMSO vs 5 µM SAHA, upregulated genes): 0.853 | logFC VASH2 (transcript TC0100011552.hg.1, DMSO vs 5 µM SAHA, upregulated genes): 1.211 | logFC FRRS1 (transcript TC0100015049.hg.1, DMSO vs 5 µM SAHA, upregulated genes): 1.197 | logFC PLD5 (transcript TC0100017957.hg.1, DMSO vs 5 µM SAHA, upregulated genes): 1.018 | logFC FPGT-TNNI3K (transcript TC0100018235.hg.1, DMSO vs 5 µM SAHA, upregulated genes): 1.058 | logFC PPP1R21 (transcript TC0200007535.hg.1, DMSO vs 5 µM SAHA, upregulated genes): 1.2457 | logFC ACVR2A (transcript TC0200009596.hg.1, DMSO vs 5 µM SAHA, upregulated genes): 1.001 | logFC ACSL3 (transcript TC0200010907.hg.1, DMSO vs 5 µM SAHA, upregulated genes): 1.082 | logFC PIGF (transcript TC0200012489.hg.1, DMSO vs 5 µM SAHA, upregulated genes): 1.027 | logFC RND3 (transcript TC0200014597.hg.1, DMSO vs 5 µM SAHA, upregulated genes): 0.9455 | logFC ACVR1C (transcript TC0200014694.hg.1, DMSO vs 5 µM SAHA, upregulated genes): 1.493 | logFC CMTM8 (transcript TC0300006961.hg.1, DMSO vs 5 µM SAHA, upregulated genes): 0.9182 | logFC RNF13 (transcript TC0300009147.hg.1, DMSO vs 5 µM SAHA, upregulated genes): 1.125 | logFC RAP2B (transcript TC0300009229.hg.1, DMSO vs 5 µM SAHA, upregulated genes): 0.867 | logFC TIPARP (transcript TC0300009282.hg.1, DMSO vs 5 µM SAHA, upregulated genes): 0.8784 | logFC PPM1L (transcript TC0300009353.hg.1, DMSO vs 5 µM SAHA, upregulated genes): 1.659 | logFC POLR2H (transcript TC0300009706.hg.1, DMSO vs 5 µM SAHA, upregulated genes): 0.9753 | logFC SLC9A9 (transcript TC0300012686.hg.1, DMSO vs 5 µM SAHA, upregulated genes): 2.129 | logFC TNIK (transcript TC0300013108.hg.1, DMSO vs 5 µM SAHA, upregulated genes): 1.27 | logFC EFHB (transcript TC0300013950.hg.1, DMSO vs 5 µM SAHA, upregulated genes): 1.411 | logFC DGKG (transcript TC0300014083.hg.1, DMSO vs 5 µM SAHA, upregulated genes): 2.595 | logFC BMP2K (transcript TC0400007938.hg.1, DMSO vs 5 µM SAHA, upregulated genes): 0.9344 | logFC NPNT (transcript TC0400008331.hg.1, DMSO vs 5 µM SAHA, upregulated genes): 1.698 | logFC HHIP (transcript TC0400008892.hg.1, DMSO vs 5 µM SAHA, upregulated genes): 1.6713 | logFC KIAA0922 (transcript TC0400009038.hg.1, DMSO vs 5 µM SAHA, upregulated genes): 1.219 | logFC ETFDH (transcript TC0400009132.hg.1, DMSO vs 5 µM SAHA, upregulated genes): 0.9226 | logFC CLCN3 (transcript TC0400009284.hg.1, DMSO vs 5 µM SAHA, upregulated genes): 0.8527 | logFC FAM175A (transcript TC0400011208.hg.1, DMSO vs 5 µM SAHA, upregulated genes): 1.331 | logFC PAPSS1 (transcript TC0400011538.hg.1, DMSO vs 5 µM SAHA, upregulated genes): 0.9468 | logFC ETNPPL (transcript TC0400011563.hg.1, DMSO vs 5 µM SAHA, upregulated genes): 1.856 | logFC PDE5A (transcript TC0400011712.hg.1, DMSO vs 5 µM SAHA, upregulated genes): 1.355 | logFC RAPGEF2 (transcript TC0400012856.hg.1, DMSO vs 5 µM SAHA, upregulated genes): 1.1527 | logFC FAM105A (transcript TC0500006816.hg.1, DMSO vs 5 µM SAHA, upregulated genes): 1.369 | logFC SLC36A1 (transcript TC0500009123.hg.1, DMSO vs 5 µM SAHA, upregulated genes): 0.9929 | logFC ARL15 (transcript TC0500010731.hg.1, DMSO vs 5 µM SAHA, upregulated genes): 2.128 | logFC GLRX (transcript TC0500011497.hg.1, DMSO vs 5 µM SAHA, upregulated genes): 0.987 | logFC NME5 (transcript TC0500012160.hg.1, DMSO vs 5 µM SAHA, upregulated genes): 1.606 | logFC PCDH1 (transcript TC0500012294.hg.1, DMSO vs 5 µM SAHA, upregulated genes): 1.432
